Experimental data as given in patent US20060148796A1, “6-Substituted imidazopyrazines” (priority 2003, published 2006).
Blank lines part the entries; values can stand above or below the compound they belong to.

Assays:
[1] = tested on: pentagastrin-stimulated acid secretion of the perfused rat stomach; test: Secretion-inhibiting action on the perfused rat stomach (pentagastrin-stimulated acid secretion, intraduodenal administration in vivo); details: dose 1 μmol/kg i.d., perfused stomach of anesthetized CD rat, female
Description: Testing of the Secretion-Inhibiting Action on the Perfused Rat Stomach
In Table A which follows, the influence of the compounds according to the invention on the pentagastrin-stimulated add secretion of the perfused rat stomach after intraduodenal administration in vivo is shown.
The abdomen of anesthetized rats (CD rat, female, 200-250 g; 1.5 g/kg Im. urethane) was opened after tracheotomy by a median upper abdominal incision and a PVC catheter was fixed transorally in the esophagus and another via the pylorus such that the ends of the tubes just projected into the gastric lumen. The catheter leading from the pylorus led outward into the right abdominal wall through a side opening.
After thorough rinsing (about 50-100 ml), warm (37° C.) physiological NaCl solution was continuously passed through the stomach (0.5 ml/min, pH 6.8-6.9; Braun-Unita I). The pH (pH meter 632, glass electrode EA 147; φ=5 mm, Metrohm) and, by titration with a freshly prepared 0.01N NaOH solution to pH 7 (Dosimat 665 Metrohm), the secreted HCl were determined in the effluent in each case collected at an interval of 15 minutes.
The gastric secretion was stimulated by continuous infusion of […] (=1.65 ml/h) of i.v. pentagastrin (left femoral vein) about 30 min after the end of the operation (.e. after determination of 2 preliminary fractions). […]

SMILES: CCc1cccc(C)c1CNc1nc(C(=O)N(C)C)cn2c(C)c(C)nc12 [Example 5, 6-(Dimethylaminocarbonyl)-8-(2-ethyl-6-methyl-benzylamino)-2,3-dimethyl-imidazo[1,2a]-pyrazine]
Inhibition of acid secretion (%) [1]: 49%

SMILES: CCc1cccc(C)c1CNc1nc(C(=O)N2CCCC2)cn2c(C)c(C)nc12 [Example 7, 8-(2-Ethyl-6-methyl-benzylamino)-6-(pyrrolidinocarbonyl)-2,3-dimethyl-imidazo[1,2-a]pyrazine]
melting point: 197 °C

SMILES: CCc1cccc(C)c1CNc1nc(Br)cn2c(C)c(C)nc12.O=C(O)C(=O)O [Example 3, 6-Bromo-8(2-ethyl-6-methyl-benzylamino)-2,3-dimethyl-imidazo[1,2-a]pyrazine oxalate]
melting point: 163 °C

Now from value to compound, other results behind:

melting point: 166 °C
SMILES: CCc1cccc(C)c1CNc1nc(CO)cn2c(C)c(C)nc12 [Example 12, 8-(2-Ethyl-6-methyl-benzylamino)-6-(hydroxymethyl)-2,3-dimethyl-imidazo[1,2-a]pyrazine]

melting point: 177 °C
SMILES: CCc1cccc(C)c1CNc1nc(COC)cn2c(C)c(C)nc12.Cl [Example 13, 8-(2-Ethyl-6-methyl-benzylamino)-6-(methoxymethyl)-2,3-dimethyl-imidazo[1,2-a]pyrazine hydrochloride]
Inhibition of acid secretion (%) [1]: 46%

melting point: 144 °C
SMILES: CCOC(=O)c1cn2c(C)c(C)nc2c(NCc2c(C)cccc2CC)n1 [Example 4, Ethyl 8-(2-ethyl-6-methyl-benzylamino)-2,3-dimethyl-imidazo[1,2-a]pyrazine-6-carboxylate]

melting point: 230 °C
SMILES: CCc1cccc(C)c1CNc1nc(C(=O)O)cn2c(C)c(C)nc12 [Example 6, 8-(2-Ethyl-6-methyl-benzylamino)-2,3-dimethyl-imidazo[1,2-a]pyrazine-6-carboxylic acid]
